Assays:
Type in all cases: in vivo
Echinochloa crus galli [1] = experiment: Pre-emergent herbicidal action (B.2); conditions: 500 bis 2000 [g/ha], evaluated after 3 weeks
Experimental: (§1) Im Gewächshaus wird unmittelbar nach der Einsaat der Versuchspflanzen in Saatschalen die Erdoberfläche mit einer wässrigen Dispersion der Wirkstoffe, erhalten aus einem 25 %igen Emulsionskonzentrat behandelt. Es werden Konzentrationen von 2000-500 g Wirksubstanz/Hektar angewendet. Die Saatschalen werden im Gewächshaus bei 22-25° C und 50-70 % relativer Luftfeuchtigkeit gehalten und der Versuch nach 3 Wochen ausgewertet und die Resultate nach folgender Notenskala ausgewertet. • 1 Pflanze hat nicht gekeimt oder ist eingegangen • 2-3 sehr starke Schäden • 4 starke Schäden • 5 mittlere Schäden, die Pflanzen sind verkümmert • 6 Schäden, die Pflanze kann regenerieren • 7-8 leichte Schäden • 9 normales Wachstum, wie das unbehandelter Pflanzen
(§2) Boniturnoten von 1 bis 4 (insbesondere von 1 bis 3) weisen auf eine gute bis sehr gute Herbizidwirkung hin. Boniturnoten von 6 bis 9 (insbesondere 7 bis 9) weisen auf eine gute Toleranz (insbesondere bei Kulturpflanzen) hin.

Chrysanthe. leuc. [2] = experiment: Pre-emergent herbicidal action (B.2); conditions: 500 bis 2000 [g/ha], evaluated after 3 weeks
Experimental: as §1, §2

Abutilon [3] = experiment: Pre-emergent herbicidal action (B.2); conditions: 500 bis 2000 [g/ha], evaluated after 3 weeks
Experimental: as §1, §2

Stellaria [4] = experiment: Pre-emergent herbicidal action (B.2); conditions: 500 bis 2000 [g/ha], evaluated after 3 weeks
Experimental: as §1, §2

Amaranthus ret. [5] = experiment: Pre-emergent herbicidal action (B.2); conditions: 500 bis 2000 [g/ha], evaluated after 3 weeks
Experimental: as §1, §2

Digitaria sang. [6] = experiment: Pre-emergent herbicidal action (B.2); conditions: 500 bis 2000 [g/ha], evaluated after 3 weeks
Experimental: as §1, §2

Sorghum halep. [7] = experiment: Pre-emergent herbicidal action (B.2); conditions: 500 bis 2000 [g/ha], evaluated after 3 weeks
Experimental: as §1, §2

Chenopodium Sp. [8] = experiment: Pre-emergent herbicidal action (B.2); conditions: 500 bis 2000 [g/ha], evaluated after 3 weeks
Experimental: as §1, §2

Lolium perenne [9] = experiment: Pre-emergent herbicidal action (B.2); conditions: 500 bis 2000 [g/ha], evaluated after 3 weeks
Experimental: as §1, §2

Ipomoea = experiment: Pre-emergent herbicidal action (B.2); conditions: 500 bis 2000 [g/ha], evaluated after 3 weeks
Experimental: as §1, §2

Veronica Sp. [10] = experiment: Pre-emergent herbicidal action (B.2); conditions: 500 bis 2000 [g/ha], evaluated after 3 weeks
Experimental: as §1, §2

Avena fatua [11] = experiment: Pre-emergent herbicidal action (B.2); conditions: 500 bis 2000 [g/ha], evaluated after 3 weeks
Experimental: as §1, §2

Galium aparine [12] = experiment: Pre-emergent herbicidal action (B.2); conditions: 500 bis 2000 [g/ha], evaluated after 3 weeks
Experimental: as §1, §2

Solanum nigrum [13] = experiment: Pre-emergent herbicidal action (B.2); conditions: 500 bis 2000 [g/ha], evaluated after 3 weeks
Experimental: as §1, §2

Sinapis [14] = experiment: Pre-emergent herbicidal action (B.2); conditions: 500 bis 2000 [g/ha], evaluated after 3 weeks
Experimental: as §1, §2

Alopecurus myos. [15] = experiment: Pre-emergent herbicidal action (B.2); conditions: 500 bis 2000 [g/ha], evaluated after 3 weeks
Experimental: as §1, §2

Bromus tectorum [16] = experiment: Pre-emergent herbicidal action (B.2); conditions: 500 bis 2000 [g/ha], evaluated after 3 weeks
Experimental: as §1, §2

Echinochloa crus galli [17] = experiment: Post-emergent herbicidal action, contact herbicide (B.3); conditions: 500 bis 2000 [g/ha], 15 days after treatment
Experimental: as §1, §2
(§3) Eine Anzahl Unkräuter, sowohl monokotyle wie dikotyle, werden nach dem Auflaufen (im 4- bis 6-Blattstadium) mit einer wässrigen Wirkstoffdispersion in einer Dosierung von 2000-500 g Wirksubstanz pro Hektar auf die Pflanzen gespritzt und diese bei 24°-26°C und 45-60 % relativer Luftfeuchtigkeit gehalten. 15 Tage nach der Behandlung wird der Versuch nach dem in Beispiel B.2. gegebenen Massstab bewertet.

Chrysanthe. leuc. [18] = experiment: as above; conditions: 500 bis 2000 [g/ha], 15 days after treatment
Experimental: as §1, §2, §3

Abutilon [19] = experiment: as above; conditions: 500 bis 2000 [g/ha], 15 days after treatment
Experimental: as §1, §2, §3

Xanthium Sp. = experiment: as above; conditions: 500 bis 2000 [g/ha], 15 days after treatment
Experimental: as §1, §2, §3

Stellaria [20] = experiment: as above; conditions: 500 bis 2000 [g/ha], 15 days after treatment
Experimental: as §1, §2, §3

Amaranthus ret. [21] = experiment: as above; conditions: 500 bis 2000 [g/ha], 15 days after treatment
Experimental: as §1, §2, §3

Digitaria sang. [22] = experiment: as above; conditions: 500 bis 2000 [g/ha], 15 days after treatment
Experimental: as §1, §2, §3

Sorghum halep. [23] = experiment: as above; conditions: 500 bis 2000 [g/ha], 15 days after treatment
Experimental: as §1, §2, §3

Chenopodium Sp. [24] = experiment: as above; conditions: 500 bis 2000 [g/ha], 15 days after treatment
Experimental: as §1, §2, §3

Lolium perenne [25] = experiment: as above; conditions: 500 bis 2000 [g/ha], 15 days after treatment
Experimental: as §1, §2, §3

Veronica Sp. [26] = experiment: as above; conditions: 500 bis 2000 [g/ha], 15 days after treatment
Experimental: as §1, §2, §3

Avena fatua [27] = experiment: as above; conditions: 500 bis 2000 [g/ha], 15 days after treatment
Experimental: as §1, §2, §3

Galium aparine [28] = experiment: as above; conditions: 500 bis 2000 [g/ha], 15 days after treatment
Experimental: as §1, §2, §3

Solanum nigrum [29] = experiment: as above; conditions: 500 bis 2000 [g/ha], 15 days after treatment
Experimental: as §1, §2, §3

Sinapis [30] = experiment: as above; conditions: 500 bis 2000 [g/ha], 15 days after treatment
Experimental: as §1, §2, §3

Alopecurus myos. [31] = experiment: as above; conditions: 500 bis 2000 [g/ha], 15 days after treatment
Experimental: as §1, §2, §3

Bromus tectorum [32] = experiment: as above; conditions: 500 bis 2000 [g/ha], 15 days after treatment
Experimental: as §1, §2, §3

Untersaaten in Mais = experiment: Pre-post selectivity: growth inhibition of undersown grasses (post-emergent) versus maize (pre-emergent)
Excerpt: Verbindungen der Formel I zeigen in vorteilhafter Weise eine "pre-post-Selektivität" bei verscheidenen Gräsern in Maiskulturen.
Die wuchshemmende Wirkung in Gräsern ist in postemergenter Applikation stark ausgeprägt, während bei gleichzeitiger Preemergenter Applikation Maispflanzen in ihrem Wuchs nur geringfügig gehemmt werden. Derartige "pre-post-Selektivitäten" erlauben somit die Aussaat von Mais in Gräsern. Dabei soll der Zeitpunkt für die Applikation der Aktivsubstanz der Formel so gewählt werden, dass die Aktivsubstanz postemergent für die Gräser ober preemergent für den Mais angewendet wird. In den ersten Wochen ist der Zuwachs der Gräser so stark gehemmt, dass die Maispflanze sich ungehindert entfalten kann.
Eine Mischung von Gräsern (z.B. Poa, Festuca, Lolium, Bromus, Cynosurus) werden in 15 cm - Kunststofftöpfen mit steriler Landerde angesät und im Gewächshaus bei einer Tagestemperatur von 21°C und einer Nachttemperatur von 17°C angezogen. Die Beleuchtungsdauer beträgt 13,5 Stunden/Tag bei einer Lichtintensität von mind. 7000 Lux. Nach dem Ablauf werden die Pflanzen wöchentlich auf ca. 6 cm Höhe zurückgeschnitten. Ca. 42 Tage nach der Saat und 1 Tag nach dem letzten Schnitt erfolgt die Applikation mit 60-500 g Wirkstoff/ha als wässrige Spritzbrühe. Die Wasseraufwandmenge ist ca. 500 I/ha.
20 Tage nach der Behandlung wird der Versuch ausgewertet. Hierbei wird die Höhe des Neuzuwachses gemessen und in % Hemmung zum Durchschnitt der unbehandelten Kontrollen dargestellt. Die nekrotischen Schäden sind in % zur gesamten Blattfläche aufgeführt.
Mais der Sorte Blizzard G188 werden in 15 cm - Kunststofftöpfen mit steriler gesiebter Landerde angesät und im Gewächshaus bei einer Tagestemperatur von 22°C und einer Nachttemperatur von 19°C aufgestellt. Die Beleuchtungsdauer beträgt mindestens 13,5 Stunden/Tag bei einer Lichtintensität von mindestens 7000 Lux. 1 Tag nach der Saat erfolgt die Applikation mit 60-500 g Wirkstoff/ha, in der Regel 25 %ig formuliert und in wässriger Spritzbrühe. Die Wasseraufwandmenge ist ca. 200 I/ha.
16 Tage nach der Behandlung wird der Versuch ausgewertet. […]

Structure (SMILES): CC1CCCc2nc3c(cc21)C(=O)N1C(=O)C(C)(C(C)C)N=C31 (centres unmarked) [Verbindung 3.02, 2,7-Dimethyl-2-isopropyl-7,8,9,10-tetrahydro-3H,5H-imidazo[1',2':1,2]pyrrolo[3,4-b]chinolin-3,5-dion]
- Herbizidwirkung (Echinochloa crus galli [1]): gute bis sehr gute Herbizidwirkung (Boniturnoten von 1 bis 4 (insbesondere von 1 bis 3) weisen auf eine gute bis sehr gute Herbizidwirkung hin)
- Herbizidwirkung (Chrysanthe. leuc. [2]): gute bis sehr gute Herbizidwirkung (Boniturnoten von 1 bis 4 (insbesondere von 1 bis 3) weisen auf eine gute bis sehr gute Herbizidwirkung hin)
- Herbizidwirkung (Abutilon [3]): gute bis sehr gute Herbizidwirkung (Boniturnoten von 1 bis 4 (insbesondere von 1 bis 3) weisen auf eine gute bis sehr gute Herbizidwirkung hin)
- Herbizidwirkung (Stellaria [4]): gute bis sehr gute Herbizidwirkung (Boniturnoten von 1 bis 4 (insbesondere von 1 bis 3) weisen auf eine gute bis sehr gute Herbizidwirkung hin)
- Herbizidwirkung (Amaranthus ret. [5]): gute bis sehr gute Herbizidwirkung (Boniturnoten von 1 bis 4 (insbesondere von 1 bis 3) weisen auf eine gute bis sehr gute Herbizidwirkung hin)
- Herbizidwirkung (Digitaria sang. [6]): gute bis sehr gute Herbizidwirkung (Boniturnoten von 1 bis 4 (insbesondere von 1 bis 3) weisen auf eine gute bis sehr gute Herbizidwirkung hin)
- Herbizidwirkung (Sorghum halep. [7]): gute bis sehr gute Herbizidwirkung (Boniturnoten von 1 bis 4 (insbesondere von 1 bis 3) weisen auf eine gute bis sehr gute Herbizidwirkung hin)
- Herbizidwirkung (Chenopodium Sp. [8]): gute bis sehr gute Herbizidwirkung (Boniturnoten von 1 bis 4 (insbesondere von 1 bis 3) weisen auf eine gute bis sehr gute Herbizidwirkung hin)
- Herbizidwirkung (Lolium perenne [9]): gute bis sehr gute Herbizidwirkung (Boniturnoten von 1 bis 4 (insbesondere von 1 bis 3) weisen auf eine gute bis sehr gute Herbizidwirkung hin)
- Herbizidwirkung (Ipomoea): gute bis sehr gute Herbizidwirkung (Boniturnoten von 1 bis 4 (insbesondere von 1 bis 3) weisen auf eine gute bis sehr gute Herbizidwirkung hin)
- Herbizidwirkung (Veronica Sp. [10]): gute bis sehr gute Herbizidwirkung (Boniturnoten von 1 bis 4 (insbesondere von 1 bis 3) weisen auf eine gute bis sehr gute Herbizidwirkung hin)
- Herbizidwirkung (Avena fatua [11]): gute bis sehr gute Herbizidwirkung (Boniturnoten von 1 bis 4 (insbesondere von 1 bis 3) weisen auf eine gute bis sehr gute Herbizidwirkung hin)
- Herbizidwirkung (Galium aparine [12]): gute bis sehr gute Herbizidwirkung (Boniturnoten von 1 bis 4 (insbesondere von 1 bis 3) weisen auf eine gute bis sehr gute Herbizidwirkung hin)
- Herbizidwirkung (Solanum nigrum [13]): gute bis sehr gute Herbizidwirkung (Boniturnoten von 1 bis 4 (insbesondere von 1 bis 3) weisen auf eine gute bis sehr gute Herbizidwirkung hin)
- Herbizidwirkung (Sinapis [14]): gute bis sehr gute Herbizidwirkung (Boniturnoten von 1 bis 4 (insbesondere von 1 bis 3) weisen auf eine gute bis sehr gute Herbizidwirkung hin)
- Herbizidwirkung (Alopecurus myos. [15]): gute bis sehr gute Herbizidwirkung (Boniturnoten von 1 bis 4 (insbesondere von 1 bis 3) weisen auf eine gute bis sehr gute Herbizidwirkung hin)
- Herbizidwirkung (Bromus tectorum [16]): gute bis sehr gute Herbizidwirkung (Boniturnoten von 1 bis 4 (insbesondere von 1 bis 3) weisen auf eine gute bis sehr gute Herbizidwirkung hin)
- Herbizidwirkung (Echinochloa crus galli [17]): gute bis sehr gute Herbizidwirkung (Boniturnoten von 1 bis 4 (insbesondere von 1 bis 3) weisen auf eine gute bis sehr gute Herbizidwirkung hin)
- Herbizidwirkung (Chrysanthe. leuc. [18]): gute bis sehr gute Herbizidwirkung (Boniturnoten von 1 bis 4 (insbesondere von 1 bis 3) weisen auf eine gute bis sehr gute Herbizidwirkung hin)
- Herbizidwirkung (Abutilon [19]): gute bis sehr gute Herbizidwirkung (Boniturnoten von 1 bis 4 (insbesondere von 1 bis 3) weisen auf eine gute bis sehr gute Herbizidwirkung hin)
- Herbizidwirkung (Xanthium Sp.): gute bis sehr gute Herbizidwirkung (Boniturnoten von 1 bis 4 (insbesondere von 1 bis 3) weisen auf eine gute bis sehr gute Herbizidwirkung hin)
- Herbizidwirkung (Stellaria [20]): gute bis sehr gute Herbizidwirkung (Boniturnoten von 1 bis 4 (insbesondere von 1 bis 3) weisen auf eine gute bis sehr gute Herbizidwirkung hin)
- Herbizidwirkung (Amaranthus ret. [21]): gute bis sehr gute Herbizidwirkung (Boniturnoten von 1 bis 4 (insbesondere von 1 bis 3) weisen auf eine gute bis sehr gute Herbizidwirkung hin)
- Herbizidwirkung (Digitaria sang. [22]): gute bis sehr gute Herbizidwirkung (Boniturnoten von 1 bis 4 (insbesondere von 1 bis 3) weisen auf eine gute bis sehr gute Herbizidwirkung hin)
- Herbizidwirkung (Sorghum halep. [23]): gute bis sehr gute Herbizidwirkung (Boniturnoten von 1 bis 4 (insbesondere von 1 bis 3) weisen auf eine gute bis sehr gute Herbizidwirkung hin)
- Herbizidwirkung (Chenopodium Sp. [24]): gute bis sehr gute Herbizidwirkung (Boniturnoten von 1 bis 4 (insbesondere von 1 bis 3) weisen auf eine gute bis sehr gute Herbizidwirkung hin)
- Herbizidwirkung (Lolium perenne [25]): gute bis sehr gute Herbizidwirkung (Boniturnoten von 1 bis 4 (insbesondere von 1 bis 3) weisen auf eine gute bis sehr gute Herbizidwirkung hin)
- Herbizidwirkung (Veronica Sp. [26]): gute bis sehr gute Herbizidwirkung (Boniturnoten von 1 bis 4 (insbesondere von 1 bis 3) weisen auf eine gute bis sehr gute Herbizidwirkung hin)
- Herbizidwirkung (Avena fatua [27]): gute bis sehr gute Herbizidwirkung (Boniturnoten von 1 bis 4 (insbesondere von 1 bis 3) weisen auf eine gute bis sehr gute Herbizidwirkung hin)
- Herbizidwirkung (Galium aparine [28]): gute bis sehr gute Herbizidwirkung (Boniturnoten von 1 bis 4 (insbesondere von 1 bis 3) weisen auf eine gute bis sehr gute Herbizidwirkung hin)
- Herbizidwirkung (Solanum nigrum [29]): gute bis sehr gute Herbizidwirkung (Boniturnoten von 1 bis 4 (insbesondere von 1 bis 3) weisen auf eine gute bis sehr gute Herbizidwirkung hin)
- Herbizidwirkung (Sinapis [30]): gute bis sehr gute Herbizidwirkung (Boniturnoten von 1 bis 4 (insbesondere von 1 bis 3) weisen auf eine gute bis sehr gute Herbizidwirkung hin)
- Herbizidwirkung (Alopecurus myos. [31]): gute bis sehr gute Herbizidwirkung (Boniturnoten von 1 bis 4 (insbesondere von 1 bis 3) weisen auf eine gute bis sehr gute Herbizidwirkung hin)
- Herbizidwirkung (Bromus tectorum [32]): gute bis sehr gute Herbizidwirkung (Boniturnoten von 1 bis 4 (insbesondere von 1 bis 3) weisen auf eine gute bis sehr gute Herbizidwirkung hin)
- "pre-post-Selektivität" bei Untersaaten in Mais (Untersaaten in Mais): ausgeprägter "pre-post-Selektivität"

From patent EP0327492A1, “Herbicidally and plantgrowth regulatory active quinoline and pyrindine compounds” (CIBA-GEIGY AG, priority 1988, dated 1989)
